Results from patent publication US8299048B2, “Hexahydrocyclopentyl[f]indazole sulfonamides and derivatives thereof as selective glucocorticoid receptor modulators” (Merck Sharp & Dohme Corp., priority 2008, dated 2012).

Target: T1, glucocorticoid receptor (Homo sapiens, UniProt P04150)
T1 construct: endogenous in cells
T1 sequence (P04150 1-777): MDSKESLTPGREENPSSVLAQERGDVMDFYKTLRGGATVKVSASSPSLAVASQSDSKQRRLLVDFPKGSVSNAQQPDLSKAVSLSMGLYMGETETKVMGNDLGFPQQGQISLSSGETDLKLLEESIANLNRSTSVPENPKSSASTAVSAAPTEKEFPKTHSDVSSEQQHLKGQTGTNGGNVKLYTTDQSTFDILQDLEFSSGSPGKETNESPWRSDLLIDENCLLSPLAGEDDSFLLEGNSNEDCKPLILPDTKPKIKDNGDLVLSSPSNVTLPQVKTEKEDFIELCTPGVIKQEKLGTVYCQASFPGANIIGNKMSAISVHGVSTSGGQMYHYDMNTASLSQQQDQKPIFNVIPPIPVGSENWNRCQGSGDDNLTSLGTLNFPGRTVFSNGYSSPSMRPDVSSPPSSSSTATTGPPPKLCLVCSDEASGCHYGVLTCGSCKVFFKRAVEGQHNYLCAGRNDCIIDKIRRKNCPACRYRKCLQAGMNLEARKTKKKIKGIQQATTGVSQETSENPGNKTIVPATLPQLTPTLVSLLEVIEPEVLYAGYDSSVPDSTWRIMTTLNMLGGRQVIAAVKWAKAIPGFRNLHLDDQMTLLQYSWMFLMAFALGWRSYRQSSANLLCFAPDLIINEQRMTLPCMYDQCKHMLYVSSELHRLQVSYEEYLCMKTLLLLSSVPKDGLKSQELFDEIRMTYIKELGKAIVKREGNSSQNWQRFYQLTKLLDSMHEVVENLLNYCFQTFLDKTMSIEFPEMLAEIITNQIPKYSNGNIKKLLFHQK
Assay: Ligand binding assay (GR BIND)
Summary of the method: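 Cytosol from freeze–thawed cells in TEGM (pH 7.2, 10 mM molybdate) was incubated overnight at 4 °C with compound and [3H]-dexamethasone trace (added as 6 nM solution), 2% EtOH final. Bound ligand was captured on hydroxylapatite, filtered, washed and scintillation counted. Values were calculated with dexamethasone as reference.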

Work on `C[C@]12Cc3cnn(-c4ccc(F)cc4)c3C=C1CC[C@@H]2CN(CC#N)S(=O)(=O)Cc1cccc(C(F)(F)F)c1` [Example 30, N-(cyanomethyl)-N-{[(4αR,5S)-1-(4-fluorophenyl}-4α-methyl-1,4,4α,5,6,7-hexahydrocyclopenta[f]indazol-5-yl]methyl}-1-[3-(trifluoromethyl)phenyl]methanesulfonamide] yielded a Ki of 7.6 nM.
`C[C@]12Cc3cnn(-c4ccc(F)cc4)c3C=C1CC[C@@H]2CN(CC1(O)CCCCC1)S(=O)(=O)c1ccccc1F` [Example 201, 2-fluoro-N-{[(4αR,5S)-1-(4-fluorophenyl)-4α-methyl-1,4,4α,5,6,7-hexahydrocyclopenta[f]indazol-5-yl]methyl}-N-[(1-hydroxycyclohexyl)methyl]benzenesulfonamide] gave a Ki of 2.3 nM.
`C[C@@H](O)CN(C[C@H]1CCC2=Cc3c(cnn3-c3ccc(F)cc3)C[C@@]21C)S(=O)(=O)Cc1ccccc1C(=O)O` [Example 182, 2-[({{[(4αR,5S)-1-(4-fluorophenyl)-4α-methyl-1,4,4α,5,6,7-hexahydrocyclopenta[f]indazol-5-yl]methyl}[(2R)-2-hydroxypropyl]amino}sulfonyl)methyl]benzoic acid] showed a Ki of 93.9 nM.
Compound `COC(=O)c1ccccc1CS(=O)(=O)N(C[C@H]1CCC2=Cc3c(cnn3-c3ccc(F)cc3)C[C@@]21C)C[C@H](C)O` [Example 181, methyl 2-[({{[(4αR,5S)-1-(4-fluorophenyl)-4α-methyl-1,4,4α,5,6,7-hexahydrocyclopenta[f]indazol-5-yl]methyl}[(2S)-2-hydroxypropyl]amino}sulfonyl)methyl]benzoate] has a Ki of 2.8 nM.
`COC(=O)c1ccccc1S(=O)(=O)N(CCc1ccccc1F)C[C@H]1CCC2=Cc3c(cnn3-c3ccc(F)cc3)C[C@@]21C` [Example 189, methyl 2-[([2-(2-fluorophenyl)ethyl]{[(4αR,5S)-1-(4-fluorophenyl)-4α-methyl-1,4,4α,5,6,7-hexahydrocyclopenta[f]indazol-5-yl]methyl}amino)sulfonyl]benzoate] was tested, and the Ki was 1.1 nM.
For `C[C@]12Cc3cnn(-c4ccc(F)cc4)c3C=C1CC[C@@H]2CN(CCO)S(=O)(=O)c1cccc(Cl)c1Cl` [Example 61, 2,3-dichloro-N-{[(4αR,5S)-1-(4-fluorophenyl)-4α-methyl-1,4,4α,5,6,7-hexahydrocyclopenta[f]indazol-5-yl]methyl}-N-(2-hydroxyethyl)benezenesulfonamide], the Ki was 2.5 nM.
Work on `Cc1oncc1S(=O)(=O)N(CC#N)C[C@H]1CCC2=Cc3c(cnn3-c3ccc(F)cc3)C[C@@]21C` [Example 23, N-(cyanomethyl)-N-{[(4αR,5S)-1-(4-fluorophenyl)-4α-methyl-1,4,4α,5,6,7-hexahydrocyclopenta[f]indazol-5-yl]methyl}-5-methylisoxazole-4-sulfonamide] yielded a Ki of 4.9 nM.
`Cc1cc(S(=O)(=O)N(CC#N)C[C@H]2CCC3=Cc4c(cnn4-c4ccc(F)cc4)C[C@@]32C)c(C)o1` [Example 33, (4αR,5S)-5-({(cyanomethyl)[(2,5-dimethyl-3-furyl)sulfonyl]amino}methyl)-1-(4-fluorophenyl)-4α-methyl-1,4,4α,5,6,7-hexahydrocyclopenta[f]indazol-2-ium] showed a Ki of 8.8 nM.
`C[C@]12Cc3cnn(-c4ccc(F)cc4)c3C=C1CC[C@@H]2CN(Cc1ccccc1F)S(=O)(=O)c1cccc(C(N)=O)c1` [Example 192, 3-[((2-fluorobenzyl){[(4αR,5S)-1-(4-fluorophenyl)-4α-methyl-1,4,4α,5,6,7-hexahydrocyclopenta[f]indazol-5-yl]methyl}amino)sulfonyl]benzamide] was tested, and the Ki was 0.9 nM.
With `C[C@]12Cc3cnn(-c4ccc(F)cc4)c3C=C1CC[C@@H]2CN(CC#N)S(=O)(=O)Cc1ccccc1` [Example 48, N-(cyanomethyl)-N-{[(4αR,5S)-1-(4-fluorophenyl)-4α-methyl-1,4,4α,5,6,7-hexahydrocyclopenta[f]indazol-5-yl]methyl}-1-phenylmethanesulfonamide] the Ki was 0.9 nM.
For `COC(=O)c1ccccc1S(=O)(=O)N(C[C@H]1CCC2=Cc3c(cnn3-c3ccc(F)cc3)C[C@@]21C)C[C@H](C)O` [Example 187, methyl 2-({{[(4αR,5S)-1-(4-fluorophenyl)-4α-methyl-1,4,4α,5,6,7-hexahydrocyclopenta[f]indazol-5-yl]methyl}[(2S)-2-hydroxypropyl]amino}sulfonyl)benzoate], the Ki was 2.5 nM.
In the case of `C[C@]12Cc3cnn(-c4ccc(F)cc4)c3C=C1CC[C@@H]2CN(CCO)S(=O)(=O)c1ccccc1F` [Example 17, 2-fluoro-N-{[(4αR,5S)-1-(4-fluorophenyl)-4α-methyl-1,4,4α,5,6,7-hexahydrocyclopenta[f]indazol-5-yl]methyl}-N-(2-hydroxyethyl)benzenesulfonamide], the Ki is reported as 2.1 nM.
Work on `C[C@]12Cc3cnn(-c4ccc(F)cc4)c3C=C1CC[C@@H]2CN(CC#N)S(=O)(=O)c1ccc(Cl)c(C(F)(F)F)c1` [Example 27, 4-chloro-N-(cyanomethyl)-N-{[(4αR,5S)-1-(4-fluorophenyl)-4α-methyl-1,4,4α,5,6,7-hexahydrocyclopenta[f]indazol-5-yl]methyl}-3-(trifluoromethyl)benzenesulfonamide] yielded a Ki of 8.8 nM.
With `Cc1noc(C)c1S(=O)(=O)N(CC1CCCO1)C[C@H]1CCC2=Cc3c(cnn3-c3ccc(F)cc3)C[C@@]21C` (stereo partly drawn) [Example 170, N-{[(4αR,5S)-1-(4-fluorophenyl)-4α-methyl-1,4,4α,5,6,7-hexahydrocyclopenta[f]indazol-5-yl]methyl}-3,5-dimethyl-N-(tetrahydrofuran-2-ylmethyl)isoxazole-4-sulfonamide] the Ki was 2.6 nM.
`Cc1ccc(S(=O)(=O)N(CC#N)C[C@H]2CCC3=Cc4c(cnn4-c4ccc(F)cc4)C[C@@]32C)s1` [Example 31, N-(cyanomethyl)-N-{[(4αR,5S)-1-(4-fluorophenyl}-4α-methyl-1,4,4α,5,6,7-hexahydrocyclopenta[f]indazol-5-yl]methyl}-5-methylthiophene-2-sulfonamide] showed a Ki of 6.1 nM.
Work on `COC(=O)c1sccc1S(=O)(=O)N(CC#N)C[C@H]1CCC2=Cc3c(cnn3-c3ccc(F)cc3)C[C@@]21C` [Example 34, methyl 3-[((cyanomethyl){[(4αR,5S)-1-(4-fluorophenyl)-4α-methyl-1,4,4α,5,6,7-hexahydrocyclopenta[f]indazol-5-yl]methyl}amino)sulfonyl]thiophene-2-carboxylate] yielded a Ki of 1.7 nM.
`Cn1nc(C(F)(F)F)cc1-c1ccc(S(=O)(=O)N(CC#N)C[C@H]2CCC3=Cc4c(cnn4-c4ccc(F)cc4)C[C@@]32C)s1` [Example 35] was tested, and the Ki was 5.1 nM.
Work on `C[C@]12Cc3cnn(-c4ccc(F)cc4)c3C=C1CC[C@@H]2CN(CCO)S(=O)(=O)Cc1ccccc1C(N)=O` [Example 198, 2-({[{[(4αR,5S)-1-(4-fluorophenyl)-4α-methyl-1,4,4α,5,6,7-hexahydrocyclopenta[f]indazol-5-yl]methyl}(2-hydroxyethyl)amino]sulfonyl}methyl)benzamide] yielded a Ki of 14.3 nM.
`C[C@]12Cc3cnn(-c4ccc(F)cc4)c3C=C1CC[C@@H]2CN(CCC#N)S(=O)(=O)c1ccccc1F` [Example 16, N-(2-cyanoethyl)-2-fluoro-N-{[(4αR,5S)-1-(4-fluorophenyl)-4α-methyl-1,4,4α,5,6,7-hexahydrocyclopenta[f]indazol-5-yl]methyl}benzenesulfonamide] showed a Ki of 3 nM.
In the case of `Cn1cnc(S(=O)(=O)N(CC#N)C[C@H]2CCC3=Cc4c(cnn4-c4ccc(F)cc4)C[C@@]32C)c1` [Example 37, N-(cyanomethyl)-N-{[(4αR,5S)-1-(4-fluorophenyl}-4α-methyl-1,4,4α,5,6,7-hexahydrocyclopenta[f]indazol-5-yl]methyl}-1-methyl-1H-imidazole-4-sulfonamide], the Ki is reported as 10.7 nM.
`COCCN(C[C@H]1CCC2=Cc3c(cnn3-c3ccc(F)cc3)C[C@@]21C)S(=O)(=O)c1cn(C)nc1C(F)(F)F` [Example 172, N-{[(4αR,5S)-1-(4-fluorophenyl)-4α-methyl-1,4,4α,5,6,7-hexahydrocyclopenta[f]indazol-5-yl]methyl}-N-(2-methoxyethyl)-1-methyl-3-(trifluoromethyl)-1H-pyrazole-4-sulfonamide] was tested, and the Ki was 0.6 nM.
Work on `COC(=O)c1ccccc1CS(=O)(=O)N(C[C@H]1CCC2=Cc3c(cnn3-c3ccc(F)cc3)C[C@@]21C)C[C@@H](C)O` [Example 180, methyl 2-[({{[(4αR,5S)-1-(4-fluorophenyl)-4α-methyl-1,4,4α,5,6,7-hexahydrocyclopenta[f]indazol-5-yl]methyl}[(2R)-2-hydroxypropyl]amino}sulfonyl)methyl]benzoatee] yielded a Ki of 1.8 nM.
`C[C@]12Cc3cnn(-c4ccc(F)cc4)c3C=C1CC[C@@H]2CN(CC#N)S(=O)(=O)c1ccccc1Cl` [Example 50, 2-chloro-N-(cyanomethyl)-N-{[(4αR,5S)-1-(4-fluorophenyl)-4α-methyl-1,4,4α,5,6,7-hexahydrocyclopenta[f]indazol-5-yl]methyl}benzenesulfonamide] gave a Ki of 6.5 nM.
